B1: IFN-γ: cytokine IFN-γ used to treat MΦ-cTLR4 cells (protein, UniProt P01580 23-155, looked up)
Interferon gamma: HGTVIESLESLNNYFNSSGIDVEEKSLFLDIWRNWQKDGDMKILQSQIISFYLRLFEVLKDNQAISNNISVIESHLITTFFSNSKAKKDAFMSIAKFEVNNPQVQRQAFNELIRVVHQLLPESSLRKRKRSRC
B2: TNFα: recombinant mouse TNFα purchased from Sigma (protein)
chain: LRSSSQNSSDKPVAHVVANHQVEEQLEWLSQRANALLANGMDLKDNQLVVPADGLYLVYSQVLFKGQGCPDYVLLTHTVSRFAISYQEKVNLLSAVKSPCPKDTPEGAELKPWYEPIYLGGVFQLEKGDQLSAEVNLPKYLDFAESGQVYFGVIAL

Tests used:
MΦ-cTLR4 cells [1] = experiment: Cytokine profile (ELISA of supernatants) of MΦ-cTLR4 cells; type: cell-based, murine
Description: We tested IL-6 and TNFα concentrations in supernatants of transduced RAW264.7 cells in vitro. Briefly, MΦ-cTLR4 cells (1×106) were plated in each well of a 6-well plate and treated with vehicle (100% EtOH), LPS (100 ng/mL), CID drug (50 nM), or left untreated in DMEM without serum. Supernatants were collected and tested using the mouse IL-6 ELISA Ready-SET-Go! and the mouse TNFα ELISA Ready-SET-Go! Kits (eBioscience) according to the manufacturer's instructions. Plates were read at 450 nm with a 570 nm wavelength subtraction, normalized to standard solutions, and concentrations (pg/mL) were calculated.

MΦ-cTLR4 cells [2] = experiment: Western blot for iNOS in MΦ-cTLR4 cells; type: cell-based, murine; settings: 24 h treatment; CID 50 nM, LPS 100 ng/mL
Description: (§1) Protein from RAW264.7, MΦ-T2A (vector control cells), and MΦ-cTLR4 cell monolayers were extracted by lysis in Laemmli buffer containing 1× Halt Protease Inhibitor cocktail (Thermo Scientific). Following lysis, samples were boiled and protein concentration was determined by performing a BCA assay from Thermo Scientific. Samples (10-30 μg of lysates) were run on 4-20% Mini-PROTEAN® TGX precast polyacrylamide gels (Bio-Rad). Protein from gels were transferred onto PVDF membranes and probed with the appropriate primary antibody overnight. Membranes were washed between each antibody incubation and subsequently probed with the appropriate HRP-conjugated secondary antibody (Life Technologies). The Clarity Western ECL Substrate (Bio-Rad) was used to detect bands.

[3] = system: ERK1/2 phosphorylation in MΦ-cTLR4 cells; experiment: Western blot for p-ERK and total ERK (MyD88-dependent pathway); type: cell-based, murine; settings: 0 to 60 minutes; CID 50 nM, LPS 100 ng/mL
Description: as §1
Following LPS stimulation and subsequent TNFα production, the TLR4 pathway leads to activation of NF-κB and the three MAPK pathways through the MyD88-dependent pathway. Both NF-κB and MAPK pathways directly control the transcription of the IL-6 and iNOS inflammatory genes, as well as control the mRNA stability of those transcripts. For the activated MΦ-cTLR4 cells, ERK1/2 phosphorylation is expected if the MyD88 dependent pathway and subsequent downstream TRAF6 activation has occurred. […]

[4] = system: NF-κB promoter in MΦ-cTLR4 cells; experiment: Dual-Luciferase NF-κB reporter assay; type: cell-based, murine; settings: CID 50 nM, 4 hours; compared to vehicle
Description: Two hundred thousand cells/well were seeded in 24-well plates. The following day each well was transfected with a total of 0.8 μg plasmid DNA, which consisted of a 20:1 ratio of pBllX-LUC (NFκB reporter construct):pRL (Renilla luciferase construct). The promoterless pGL4.10 vector was also transfected in a 20:1 ratio of pGL4.10:pRL, as a control. Transfections of each well were performed with 2 μL Lipofectamine 2000 (Invitrogen). The following morning transfection reagents were replaced with fresh serum-free medium and treated with either vehicle (100% EtOH) or CID drug (50 nM) for 4 hours. Cell lysate was harvested and luciferase activity was measured using a Dual-Luciferase® reporter assay kit (Promega) according to manufacturer's instructions. All groups were normalized to Renilla luciferase.

[5] = system: IRF3 phosphorylation in MΦ-cTLR4 cells; experiment: Western blot for p-IRF3 and total IRF3 (MyD88-independent pathway); type: cell-based, murine; settings: CID 50 nM, LPS 100 ng/mL; compared to vehicle
Description: as §1
To determine if the MΦ-cTLR4 cells were signaling through the MyD88-independent pathway, we tested for phosphorylated IRF3. […] The IRF3 phosphorylation of the CID- and LPS-treated MΦ-cTLR4 cells starts to decrease following the 2 hour timepoint and subsequently reaches similar levels as vehicle at the 6 and 12 hour timepoints.

bEnd.3 endothelial cells = experiment: Endothelial cell activation by MΦ-cTLR4 conditioned media (flow cytometry for VCAM-1 and ICAM-1); type: cell-based, mouse; settings: media from MΦ-cTLR4 treated 6 h (TNFα 20 ng/mL, CID 50 nM); bEnd.3 incubated 12 h
Description: MΦ-cTRL4 conditioned media, following a 6 hour treatment in 6-well plates (1×10^6 cells/well), was transferred to plated bEnd.3 cells in a 12-well plate (0.2×10^6 cells/well). Before media transfer, TNFα neutralizing and IgG isotype antibody (1 μg/mL) were incubated in media for 15 minutes. Media was then added to bEnd.3 cells for 12 hours. Following incubation, bEnd.3 cells were trypsinized and stained for ICAM-1 and VCAM-1. Cell cytometry was performed on a FACSCanto II Cell Analyzer (BD Biosciences) equipped with 488 nm and 647 nm lasers. Typically, 10,000 cells were analyzed per sample. Experiments were repeated at least three times. Non-specific staining was evaluated using a monoclonal antibody for IgG2b and IgG2a (eBioscience).

[6] = system: MΦ-cTLR4 cells co-cultured with rat aortic ECs (RAECs); experiment: Co-culture tube formation (angiogenesis) assay; type: cell-based; settings: CID 50 nM or LPS 100 ng/mL added to the medium
Text: Untreated MΦ-cTLR4 cells co-cultured with rat aortic ECs (RAECs), with no added factors to the medium, had the least amount of isolated segments, the least amount of branches, and the most amount of branching interval.

[7] = system: MΦ-cTLR4 cells in Matrigel plug; experiment: In vivo Matrigel plug with MΦ-cTLR4 cells; set-up: species or system BALB/c mice; settings: 14 day; CID drug 2 mg/kg intraperitoneal every other day; s.c. Matrigel plug
Description: Four groups of 4 week old female BALB/c mice (total of 16 mice) were used in this in vivo study. The four groups consisted of: 7 day non-treated mice, 7 day CID-treated mice, 14 day non-treated mice, and 14 day CID-treated mice. At day of injection, pre-plated MΦ-cTLR4 cells were lifted off and counted. 0.5×10^6 cells were s.c. injected mixed in with Matrigel into the right back dorsal area of the mouse. Before placing mouse back in cage, mice were injected with the first intraperitoneal CID drug dose (2 mg/kg mouse weight). Treatment groups were given CID drug injections every other day during the course of the experiment (FIG. 20).

MΦ-cTLR4 cells [8] = experiment: ELISA for VEGF-A in MΦ-cTLR4 medium; type: cell-based, murine; settings: for VEGF expression compared to controls: single treatment (FIG. 22A)
Description: In order to determine if the MΦ-cTLR4 cells were expressing the key angiogenic molecule VEGF-A, an ELISA was performed to test for VEGF-A levels in MΦ-cTLR4 medium following various treatments (FIG. 22A). […] Since studies have shown human and rat MΦs express increased VEGF with IFN-γ treatment, the response was also tested with this factor.

[9] = 24 h treatment, CID drug 50 nM, compared to uninduced controls

Molecule | time to upregulation of key pro-inflammatory markers after CID drug addition (MΦ-cTLR4 cells [1]) [h] | IL-6 levels (MΦ-cTLR4 cells [1]; [9]) | TNFα levels (MΦ-cTLR4 cells [1]; [9]) | time IL-6 levels stayed activated (MΦ-cTLR4 cells [1]; constant CID drug (50 nM) in media) [h] | time elevated levels of TNFα, IL-6 and iNOS are maintained (MΦ-cTLR4 cells [1]; constant CID drug (50 nM) in media, changed every 24 h) | dose producing the maximum activation of MΦ-cTLR4 cells (IL-6 ELISA) (MΦ-cTLR4 cells [1]; titration 50 nM-250 nM, 24 h treatment) | iNOS expression (130 kDa band) (MΦ-cTLR4 cells [2]) | ERK1/2 phosphorylation (p-ERK/total ERK ratio relative to zero timepoint) [3] | NF-κB promoter activation (luciferase activity normalized to Renilla) [4] | time of activation peak of p-IRF3/total IRF3 ratio [5] [h] | EC positive for ICAM-1 (bEnd.3 endothelial cells) [%] | EC positive for VCAM-1 (bEnd.3 endothelial cells) [%] | branching interval vs untreated co-cultures [6] | isolated segments [6] | number of branches vs untreated co-cultures [6] | number of master segments compared to the control [6] | co-localization of GFP MΦ-cTLR4 cells and iNOS regions in plug [7] | VEGF expression compared to controls (MΦ-cTLR4 cells [8]) | VEGF compared to the control, IFN-γ alone or in cocktail (MΦ-cTLR4 cells [8]; IFN-γ alone or cocktail with CID or LPS (FIG. 22B))
CC[C@H](C(=O)N1CCCC[C@H]1C(=O)O[C@H](CCc1ccc(OC)c(OC)c1)c1cccc(OCC(=O)NCC(CNC(=O)COc2cccc([C@@H](CCc3ccc(OC)c(OC)c3)OC(=O)[C@@H]3CCCCN3C(=O)[C@@H](CC)c3cc(OC)c(OC)c(OC)c3)c2)CN(C)C)c1)c1cc(OC)c(OC)c(OC)c1 [CID drug, AP20187] | 6 | increased | increased | 72 | at least 48 hours | at least 50 nM | much lower intensity than the LPS-treated cells | upregulation of ERK1/2 phosphorylation at the 5 minute timepoint | increased NF-κB promoter activation | 2 | 64.4 | 93.7 | smaller branching interval | slightly more isolated segments than the untreated group | much more branches | not significantly different | occurrences of GFP/iNOS co-localization | significantly decreased amounts of VEGF | 
lipopolysaccharides [LPS] |  |  |  |  |  |  | substantial increase in iNOS expression |  |  | 2 |  |  | smaller branching interval | highest number of isolated segments | much more branches | not significantly different |  | significantly decreased amounts of VEGF | 
B1 |  |  |  |  |  |  |  |  |  |  |  |  |  |  |  |  |  |  | significant decrease in VEGF
B2 |  |  |  |  |  |  |  |  |  |  | 57.2 | 93.5 |  |  |  |  |  |  | 

— patent US20190008897A1, “COMPOSITIONS AND METHODS FOR PRODUCING PRO-INFLAMMATORY MACROPHAGES” (UNIVERSITY OF WASHINGTON, priority 2015, published 2019)
